Publication PMC7717492 (Science translational medicine, 2019)
“Also recorded” adds a separate entry of the source.

Assays:
MPS1 mutant cells = assay type: cell-based; settings: CRISPR-mediated HDR knock-in
[1] = tested on: MELK-knockout (KO) cancer cells; settings: cited from earlier work
[2] = tested on: A375 cells expressing H2B-mCherry; test: Mitotic progression after release from double-thymidine block into OTS964; assay type: cell-based, human
[3] = tested on: CDK11B G579S / G579A cancer cells; test: Viability of CDK11B xDFG mutant cancer cells in OTS964; assay type: cell-based, human
multiple cancer types = test: OTS964 potency in cancer cell lines
CDK11B = CDK11B (Homo sapiens, UniProt P21127); test: Binding of OTS964 to different CDKs
CDK11B, sequence (P21127 whole entry): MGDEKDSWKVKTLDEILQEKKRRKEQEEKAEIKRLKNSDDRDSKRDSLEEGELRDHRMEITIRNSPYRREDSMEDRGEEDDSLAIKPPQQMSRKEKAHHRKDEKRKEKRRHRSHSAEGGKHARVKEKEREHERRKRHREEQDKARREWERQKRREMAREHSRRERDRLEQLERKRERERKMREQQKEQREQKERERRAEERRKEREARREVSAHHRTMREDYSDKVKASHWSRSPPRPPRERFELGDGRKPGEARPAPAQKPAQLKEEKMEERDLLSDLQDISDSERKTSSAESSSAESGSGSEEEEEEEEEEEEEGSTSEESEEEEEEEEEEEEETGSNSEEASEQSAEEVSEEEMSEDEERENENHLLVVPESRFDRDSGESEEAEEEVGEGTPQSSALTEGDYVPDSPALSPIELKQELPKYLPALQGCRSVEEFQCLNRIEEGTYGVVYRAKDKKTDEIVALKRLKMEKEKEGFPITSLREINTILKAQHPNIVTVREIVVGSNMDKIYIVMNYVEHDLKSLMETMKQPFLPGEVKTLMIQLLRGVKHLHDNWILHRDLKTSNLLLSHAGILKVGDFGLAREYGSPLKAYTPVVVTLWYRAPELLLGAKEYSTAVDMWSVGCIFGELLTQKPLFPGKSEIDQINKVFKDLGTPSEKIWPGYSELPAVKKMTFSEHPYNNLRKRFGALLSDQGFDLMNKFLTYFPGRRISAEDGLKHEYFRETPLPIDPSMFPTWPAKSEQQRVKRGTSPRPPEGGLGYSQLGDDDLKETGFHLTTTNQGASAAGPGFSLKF

CASP3-KO lines = test: Dose-response of Rosa26 and CASP3-KO cells with putative caspase-3 activators; assay type: cell-based, human; settings: four different cell lines incl. A375 and HCT116
MCF7 cells = settings: caspase 3-deficient breast cancer cell line; cited from earlier work
[4] = tested on: Rosa26 and PAK4-KO melanoma cells; test: 7-point dose-response of Rosa26 and PAK4-KO cells with PF-3758309; assay type: cell-based; settings: Homo sapiens, A-375
[5] = tested on: MAPK14/p38α knockout clones; test: Sensitivity of MAPK14/p38α knockout clones to chemotherapy agents; assay type: cell-based, human; settings: multiple cell lines
TOV-21G HDAC6-KO cells = test: Drug sensitivity of HDAC6-KO ovarian cancer cells; assay type: cell-based, human; settings: ARID1A-mutant ovarian cancer cell line
p53 knockout cells = test: Nutlin-3a sensitivity after p53 knockout; assay type: cell-based
[6] = tested on: OTS964-resistant HCT116 clones; test: Paclitaxel sensitivity of OTS964-resistant clones; settings: HCT116 clones resistant to OTS964
HDAC6 knockout clones = test: Sensitivity of HDAC6 knockout clones to chemotherapy agents; assay type: cell-based, human; settings: HDAC6 knockout versus control clones
FKBP12 KO clones = test: Rapamycin sensitivity of FKBP12 knockout clones; assay type: cell-based
HDAC6-KO HAP1 cells = settings: cited from earlier work

## COc1cc(OC2CCN(C)CC2)ccc1Nc1ncc2c(n1)n(C1CCCC1)c(=O)n2C [AZ3146]
MPS1 mutant cells
  effect of MPS1 kinase domain missense mutation on drug sensitivity: capable of granting resistance

## CC(=O)c1cnc2ccc(-c3cc(Cl)c(O)c(Cl)c3)nc2c1N[C@H]1CC[C@H](CN(C)C)CC1 [OTS167]
[1]
  killing of MELK-KO cancer cells: no decrease in potency

## Cc1cc(O)c(-c2ccc(C(C)CN(C)C)cc2)c2c1[nH]c(=O)c1sccc12 (stereo not drawn) [OTS964]
[2]; A375 cells with CDK11B G579S, lethal concentration of OTS964
  effect of G579S substitution on mitotic entry and progression in drug: rescued normal mitotic entry and progression
[2]; arrested cells: 4C DNA content, no 53BP1-foci
  effect on DNA replication: did not perturb DNA replication
[2]; lethal concentration of OTS964, release from double-thymidine block
  effect on cell cycle: arrested in G2
[2]; low concentration of OTS964, release from double-thymidine block
  effect on mitotic progression: delayed nuclear envelope breakdown and progressed slowly through mitosis
[3]; A375, A2780, DLD1 and MDA-MB-231 cells, lethal concentration of OTS964
  effect of CDK11B xDFG Gly→Ser (G579S) mutation on viability in drug: sufficient to restore viability
[3]; CDK11B residue 579 alanine substitution
  effect of alanine substitution at CDK11B residue 579 on drug efficacy: sufficient to decrease the efficacy
Multiple cancer types
  potency: nanomolar potency
CDK11B
  Kd: 40 nM

## C=CCc1cccc(/C=N/NC(=O)CN2CCN(Cc3ccccc3)CC2)c1O [PAC-1]
CASP3-KO lines
  sensitivity of CASP3-KO lines compared to Rosa26 controls: identical sensitivity
MCF7 cells
  IC50 value in MCF7 cells compared to caspase 3-expressing cell lines: higher

## Cc1nc(Nc2[nH]nc3c2CN(C(=O)N[C@H](CN(C)C)c2ccccc2)C3(C)C)c2sccc2n1 [PF-3758309]
[4]
  GI50: ~9 nM

## CC(C)C[C@H](NC(=O)[C@H](Cc1ccccc1)NC(=O)c1cnccn1)B(O)O [bortezomib]
[5]
  sensitivity of MAPK14/p38α knockout clones versus Rosa26 control clones: as sensitive

## N.N.O=C([O-])C1(C(=O)[O-])CCC1.[Pt+2] [carboplatin]
[5]
  sensitivity of MAPK14/p38α knockout clones versus Rosa26 control clones: as sensitive

## O=C(CCCCCCNC(=O)c1cnc(N(c2ccccc2)c2ccccc2Cl)nc1)NO [citarinostat]
TOV-21G HDAC6-KO cells
  sensitivity of TOV-21G HDAC6-KO cells: remained sensitive

## Nc1ccn([C@@H]2O[C@H](CO)[C@@H](O)C2(F)F)c(=O)n1 [gemcitabine]
[5]
  sensitivity of MAPK14/p38α knockout clones versus Rosa26 control clones: as sensitive

## COc1ccc(C2=N[C@@H](c3ccc(Cl)cc3)[C@@H](c3ccc(Cl)cc3)N2C(=O)N2CCNC(=O)C2)c(OC(C)C)c1 [nutlin-3a]
p53 knockout cells
  effect of p53 knockout on drug sensitivity: conferred resistance

## CC(=O)O[C@H]1C(=O)[C@@]2(C)[C@H]([C@H](OC(=O)c3ccccc3)[C@]3(O)C[C@H](OC(=O)[C@H](O)[C@@H](NC(=O)c4ccccc4)c4ccccc4)C(C)=C1C3(C)C)[C@]1(OC(C)=O)CO[C@@H]1C[C@@H]2O [paclitaxel]
[6]
  sensitivity of OTS964-resistant clones: remained sensitive
HDAC6 knockout clones
  effect of loss of HDAC6 on drug sensitivity: failed to sensitize

## CO[C@H]1C[C@@H]2CC[C@@H](C)[C@@](O)(O2)C(=O)C(=O)N2CCCC[C@H]2C(=O)O[C@H]([C@H](C)C[C@@H]2CC[C@@H](O)[C@H](OC)C2)CC(=O)[C@H](C)/C=C(\C)[C@@H](O)[C@@H](OC)C(=O)[C@H](C)C[C@H](C)/C=C/C=C/C=C/1C [rapamycin]
FKBP12 KO clones
  effect of FKBP12 knockout on drug sensitivity: increased resistance

## O=C(CCCCCCNC(=O)c1cnc(N(c2ccccc2)c2ccccc2)nc1)NO [ricolinostat]
HDAC6-KO HAP1 cells
  killing of HDAC6-KO HAP1 cells: continued to kill; also recorded: kills
TOV-21G HDAC6-KO cells
  sensitivity of TOV-21G HDAC6-KO cells: remained sensitive

## Cn1nnc2c(C(N)=O)ncn2c1=O [temozolomide]
[5]
  sensitivity of MAPK14/p38α knockout clones versus Rosa26 control clones: as sensitive
